From BindingDB's records for doi:10.1021/jm00020a026 (University of Michigan, 1995)

Assay: antiviral activity in Human immunodeficiency virus-1 as reverse transcriptase activity in culture supernatant

Row | Compound | IC50 [µM]
1 | NC(=S)c1cn(C2OC(CO)C(O)C2F)c2ncnc(N)c12 (stereo unspecified) [4-Amino-7-(3-fluoro-4-hydroxy-5-hydroxymethyl-tetrahydro-furan-2-yl)-7H-pyrrolo[2,3-d]pyrimidine-5-carbothioic acid amide] | 0.07
2 | Cc1cn([C@H]2C[C@H](N=[N+]=[N-])[C@@H](CO)O2)c(=O)[nH]c1=O [1-((2R,4S,5S)-4-Azido-5-hydroxymethyl-tetrahydro-furan-2-yl)-5-methyl-1H-pyrimidine-2,4-dione] | 0.011
3 | NC(=O)c1cn(C2OC(CO)C(O)C2F)c2ncnc(N)c12 (stereo unspecified) [4-Amino-7-(3-fluoro-4-hydroxy-5-hydroxymethyl-tetrahydro-furan-2-yl)-7H-pyrrolo[2,3-d]pyrimidine-5-carboxylic acid amide] | 0.02
4 | N#Cc1c(Br)n([C@H]2O[C@H](CO)[C@@H](O)[C@@H]2F)c2ncnc(N)c12 | 32
5 | N#Cc1cn([C@H]2O[C@H](CO)[C@@H](O)[C@@H]2F)c2ncnc(N)c12 | > 100
6 | N#Cc1cn([C@@H]2O[C@H](CO)[C@@H](O)[C@@H]2F)c2ncnc(N)c12 | 12
